Reference: patent US8133884B2, “Compounds for the treatment of hepatitis C” (priority 2008, dated 2012)

How the values were obtained:
HCV NS5B = target: T1, HCV NS5B (Hepatitis C virus genotype 1b, UniProt Q9WMX2); assay: Modified HCV NS5B RdRp enzyme assay (preincubation protocol); assay type: biochemical
T1 construct: The protein was expressed with an 18 amino acid C-terminal truncation to enhance the solubility; made in house; host or cells: E. coli BL21(DE3)
In short: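 C-terminally truncated (Δ18) genotype 1b NS5B from E. coli, 14 nM, added to compound first, then polyA template (0.2 nM), 3H-UTP (0.29 μM) and oligo-dT12 primer precaptured on streptavidin SPA beads (20 nM). Run 4 h at 30° C, pH 7.5, 2% DMSO; IC50 fitted from seven concentrations.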

HCV replicon = HCV replicon assay (FRET or luciferase reporter); assay type: cell-based; conditions: Hepatitis C virus, one of the methods described
Excerpt: To perform the HCV FRET screening assay, 96-well cell culture plates were used, The FRET peptide (Anaspec, Inc.) (Taliani et al., Anal. Biochem., 240:60-67 (1996)) contains a fluorescence donor, EDANS, near one end of the peptide and an acceptor, DABCYL, near the other end. The fluorescence of the peptide is quenched by […] resonance energy transfer (RET) between the donor and the acceptor, but as the NS3 protease cleaves the peptide the products are released from RET quenching and the fluorescence of the donor becomes apparent. The assay reagent was made as follows: 5× cell Luciferase cell culture lysis reagent from Promega (#E153A) diluted to 1× with dH2O, NaCl added to 150 mM final, the FRET peptide diluted to 20 μM final from a 2 mM stock.
To prepare plates, HCV replicon cells, with or without a Renilla luciferase reporter gene, were trypsinized and placed into each well of a 96-well plate with titrated test compounds added in columns 3 through 12; columns 1 and 2 contained a control compound (HCV protease inhibitor), and the bottom row contained cells without compound. The plates were then placed in a CO2 incubator at 37° C.
Subsequent to addition of the test compounds described above (FRET Assay Preparation), at various times the plate was removed and Alamar blue solution (Trek Diagnostics, #00-100) was added per well as a measure of cellular toxicity. After reading in a CYTOFLUOR® 4000 instrument (PE Biosystems), plates were rinsed with PBS and then used for FRET assay by the addition of 30 ul of the FRET peptide assay reagent described above (FRET Assay Preparation) per well. The plate was then placed into the CYTOFLUOR® 4000 instrument which had been set to 340 excite/490 emission, automatic mode for 20 cycles and the plate read in a kinetic mode. Typically, the signal to noise using an endpoint analysis after the reads was at least three-fold. Alternatively, after Alamar blue reading, plates were rinsed with PBS, 50 ul of DMEM (high glucose) without phenol red was added and plates were then used for luciferase assay using the Promega DUAL-GLO® Luciferase Assay System.
Compound analysis was determined by quantification of the relative HCV replicon inhibition and the relative cytotoxicity values. To calculate cytoxicity values, the average Alamar Blue fluorescence signals from the control wells were set as 100% non-toxic. The individual signals in each of the compound test wells were then divided by the average control signal and multiplied by 100% to determine […]. To calculate the HCV replicon inhibition values, an average background value was obtained from the two wells containing the highest amount of HCV protease inhibitor at the end of the assay period. These numbers were similar to those obtained from naïve Huh-7 cells.
The background numbers were then subtracted from the average signal obtained from the control wells and this number was used as 100% activity. The individual signals in each of the compound test wells were then divided by the averaged control values after background subtraction and multiplied by 100% to determine percent activity. EC50 values for a protease inhibitor titration were calculated as the concentration which caused a 50% reduction in FRET or luciferase activity. The two numbers generated for the compound plate, percent cytoxicity and percent activity were used to determine compounds of interest for further analysis.
The HCV replicon luciferase assay was developed to monitor the inhibitory effects of compounds described in the disclosure on HCV viral replication. Utilization of a replicon luciferase reporter assay was first described by Krieger et al (Krieger, N. et al., J. Virology, 75(10):4614-4624 (2001)). HUH-7 cells, constitutively expressing the HCV replicon, were grown in Dulbecco's Modified Eagle Media (DMEM) (Gibco-BRL) containing 10% Fetal calf serum (FCS) (Sigma) and 1 mg/ml G418 (Gibco-BRL). […]

T1 sequence (Q9WMX2 2420-2992): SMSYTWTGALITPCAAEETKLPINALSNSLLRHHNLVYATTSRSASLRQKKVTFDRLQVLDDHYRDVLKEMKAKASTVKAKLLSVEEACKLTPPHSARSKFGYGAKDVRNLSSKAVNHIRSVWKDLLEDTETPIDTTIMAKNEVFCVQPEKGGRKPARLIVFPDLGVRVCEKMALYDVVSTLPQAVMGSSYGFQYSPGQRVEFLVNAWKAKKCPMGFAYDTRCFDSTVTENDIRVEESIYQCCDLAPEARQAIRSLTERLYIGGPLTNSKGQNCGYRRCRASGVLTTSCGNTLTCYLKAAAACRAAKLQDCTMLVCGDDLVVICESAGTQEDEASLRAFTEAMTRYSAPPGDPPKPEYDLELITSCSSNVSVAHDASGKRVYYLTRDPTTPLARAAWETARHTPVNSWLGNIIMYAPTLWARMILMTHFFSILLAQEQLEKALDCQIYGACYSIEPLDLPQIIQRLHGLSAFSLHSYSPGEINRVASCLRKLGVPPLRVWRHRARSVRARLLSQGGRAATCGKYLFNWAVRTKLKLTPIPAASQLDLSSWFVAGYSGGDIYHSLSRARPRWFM

Compound | IC50 (HCV NS5B; class symbol) | EC50 (HCV replicon; class symbol) | IC50 (HCV NS5B; exact value) | EC50 (HCV replicon; exact value)
COc1ccc2c(c1)C=C(c1c(C(=O)N3C[C@@H](C)N(C)[C@@H](C)C3)cnn1C1CCC1)Cn1c-2c(C2CCCCC2)c2ccc(C(=O)NS(=O)(=O)CC(C)C)cc21 | 1.7 to 500 nM | 1.7 to 500 nM |  | 
COc1ccc2c(c1)C=C(c1c(C(=O)N3CCOCC3)cnn1C1CCC1)Cn1c-2c(C2CCCCC2)c2ccc(C(=O)NS(=O)(=O)CC(C)C)cc21 | 1.7 to 500 nM | 1.7 to 500 nM |  | 
COc1ccc2c(c1)C=C(c1c(C(=O)N3C[C@@H](C)O[C@@H](C)C3)cnn1C1CCC1)Cn1c-2c(C2CCCCC2)c2ccc(C(=O)NS(=O)(=O)CC(C)C)cc21 | 1.7 to 500 nM | 1.7 to 500 nM |  | 
CCN1C[C@@H]2C[C@H]1CN2C(=O)c1cnn(C2CCC2)c1C1=Cc2cc(OC)ccc2-c2c(C3CCCCC3)c3ccc(C(=O)NS(=O)(=O)N(C)C)cc3n2C1 | 1.7 to 500 nM | 1.7 to 500 nM |  | 
CCN1C[C@@H]2C[C@H]1CN2C(=O)c1c(C)nn(C2CCC2)c1C1=Cc2cc(OC)ccc2-c2c(C3CCCCC3)c3ccc(C(=O)NS(=O)(=O)N(C)C)cc3n2C1 | 1.7 to 500 nM | 1.7 to 500 nM | 3.4 nM | 10 nM
CCN1C[C@@H]2C[C@H]1CN2C(=O)c1c(C)nn(C2CCC2)c1C1=Cc2cc(OC)ccc2-c2c(C3CCCCC3)c3ccc(C(=O)NS(=O)(=O)C(C)C)cc3n2C1 | 1.7 to 500 nM | 1.7 to 500 nM |  | 
COc1ccc2c(c1)C=C(c1c(C(=O)N3C4CCC3CN(C)C4)cnn1C1CCC1)Cn1c-2c(C2CCCCC2)c2ccc(C(=O)NS(=O)(=O)N(C)C)cc21 | 1.7 to 500 nM | 1.7 to 500 nM |  | 
COc1ccc2c(c1)C=C(c1c(C(=O)N3C4CCC3CN(C)C4)c(C)nn1C1CCC1)Cn1c-2c(C2CCCCC2)c2ccc(C(=O)NS(=O)(=O)N(C)C)cc21 | 1.7 to 500 nM | 1.7 to 500 nM |  | 
COc1ccc2c(c1)C=C(c1c(C(=O)N3C4CCC3CN(C)C4)c(C)nn1C1CCC1)Cn1c-2c(C2CCCCC2)c2ccc(C(=O)NS(=O)(=O)C(C)C)cc21 | 1.7 to 500 nM | 1.7 to 500 nM |  | 
COc1ccc2c(c1)C=C(c1c(C(=O)N3CCOCC3)c(C)nn1C1CCC1)Cn1c-2c(C2CCCCC2)c2ccc(C(=O)NS(=O)(=O)C(C)C)cc21 | 1.7 to 500 nM | 1.7 to 500 nM |  | 
COC[C@@H]1CN(C(=O)c2c(C)nn(C3CCC3)c2C2=Cc3cc(OC)ccc3-c3c(C4CCCCC4)c4ccc(C(=O)NS(=O)(=O)C(C)C)cc4n3C2)CCO1 | 1.7 to 500 nM | 1.7 to 500 nM |  | 
COc1ccc2c(c1)C=C(c1c(C(=O)N3C4CCC3COC4)c(C)nn1C1CCC1)Cn1c-2c(C2CCCCC2)c2ccc(C(=O)NS(=O)(=O)C(C)C)cc21 | 1.7 to 500 nM | 1.7 to 500 nM |  | 
COc1ccc2c(c1)C=C(c1c(C(=O)N3C[C@@H]4C[C@H]3CO4)c(C)nn1C1CCC1)Cn1c-2c(C2CCCCC2)c2ccc(C(=O)NS(=O)(=O)C(C)C)cc21 | 1.7 to 500 nM | 1.7 to 500 nM |  | 
COc1ccc2c(c1)C=C(c1c(C(=O)N3C4CCCC3COC4)c(C)nn1C1CCC1)Cn1c-2c(C2CCCCC2)c2ccc(C(=O)NS(=O)(=O)C(C)C)cc21 | 1.7 to 500 nM | 1.7 to 500 nM |  | 
COc1ccc2c(c1)C=C(c1c(C(=O)N3CCN(C)CC3)c(C)nn1C1CCC1)Cn1c-2c(C2CCCCC2)c2ccc(C(=O)NS(=O)(=O)C(C)C)cc21 | 1.7 to 500 nM | 1.7 to 500 nM |  | 
COc1ccc2c(c1)C=C(c1c(C(=O)N3C[C@@H](C)N(C)[C@@H](C)C3)c(C)nn1C1CCC1)Cn1c-2c(C2CCCCC2)c2ccc(C(=O)NS(=O)(=O)C(C)C)cc21 | 1.7 to 500 nM | 1.7 to 500 nM |  | 
COc1ccc2c(c1)C=C(c1c(C(=O)N3CC4CCC(C3)N4C)c(C)nn1C1CCC1)Cn1c-2c(C2CCCCC2)c2ccc(C(=O)NS(=O)(=O)C(C)C)cc21 | 1.7 to 500 nM | 1.7 to 500 nM |  | 

Compound | IC50 (HCV NS5B; class symbol) | EC50 (HCV replicon; class symbol) | IC50 (HCV NS5B; exact value) | EC50 (HCV replicon; exact value)
COc1ccc2c(c1)C=C(c1c(C(=O)N3C[C@@H]4C[C@H]3CN4C)c(C)nn1C1CCC1)Cn1c-2c(C2CCCCC2)c2ccc(C(=O)NS(=O)(=O)C(C)C)cc21 | 1.7 to 500 nM | 1.7 to 500 nM |  | 
COc1ccc2c(c1)C=C(c1c(C(=O)N3C[C@@H]4C[C@H]3CN4CC3CC3)c(C)nn1C1CCC1)Cn1c-2c(C2CCCCC2)c2ccc(C(=O)NS(=O)(=O)C(C)C)cc21 | 1.7 to 500 nM | 1.7 to 500 nM |  | 
CCN1C[C@H]2C[C@@H]1CN2C(=O)c1cnn(C2CCC2)c1C1=Cc2cc(OC)ccc2-c2c(C3CCCCC3)c3ccc(C(=O)NS(=O)(=O)C(C)C)cc3n2C1 | 1.7 to 500 nM | 1.7 to 500 nM |  | 
COc1ccc2c(c1)C=C(c1c(C(=O)N3CC[C@H]4C[C@H]43)cnn1C1CCC1)Cn1c-2c(C2CCCCC2)c2ccc(C(=O)NS(=O)(=O)C(C)C)cc21 | 1.7 to 500 nM | 1.7 to 500 nM |  | 
COc1ccc2c(c1)C=C(c1c(C(=O)N3CCC(F)(F)CC3)cnn1C1CCC1)Cn1c-2c(C2CCCCC2)c2ccc(C(=O)NS(=O)(=O)C(C)C)cc21 | 1.7 to 500 nM | 1.7 to 500 nM |  | 
COc1ccc2c(c1)C=C(c1c(C(=O)N3C4CCC3CC4)cnn1C1CCC1)Cn1c-2c(C2CCCCC2)c2ccc(C(=O)NS(=O)(=O)C(C)C)cc21 | 1.7 to 500 nM | 1.7 to 500 nM |  | 
COCCN(CCOC)C(=O)c1cnn(C2CCC2)c1C1=Cc2cc(OC)ccc2-c2c(C3CCCCC3)c3ccc(C(=O)NS(=O)(=O)C(C)C)cc3n2C1 | 1.7 to 500 nM | 1.7 to 500 nM |  | 
COCCN(C(=O)c1cnn(C2CCC2)c1C1=Cc2cc(OC)ccc2-c2c(C3CCCCC3)c3ccc(C(=O)NS(=O)(=O)C(C)C)cc3n2C1)C(C)C | 1.7 to 500 nM | 1.7 to 500 nM |  | 
COc1ccc2c(c1)C=C(c1c(C(=O)N3CC(F)(F)C3)cnn1C1CCC1)Cn1c-2c(C2CCCCC2)c2ccc(C(=O)NS(=O)(=O)C(C)C)cc21 | 1.7 to 500 nM | 1.7 to 500 nM |  | 
COc1ccc2c(c1)C=C(c1c(C(=O)N3C4CCCCC3CCC4)cnn1C1CCC1)Cn1c-2c(C2CCCCC2)c2ccc(C(=O)NS(=O)(=O)C(C)C)cc21 | 1.7 to 500 nM | 1.7 to 500 nM | 7 nM | 400 nM
COc1ccc2c(c1)C=C(c1c(C(=O)N3CC4CCC3C4)cnn1C1CCC1)Cn1c-2c(C2CCCCC2)c2ccc(C(=O)NS(=O)(=O)C(C)C)cc21 (stereo not shown) | 1.7 to 500 nM | 1.7 to 500 nM |  | 
COc1ccc2c(c1)C=C(c1c(C(=O)N3C[C@@H]4C[C@H]3CN4)cnn1C1CCC1)Cn1c-2c(C2CCCCC2)c2ccc(C(=O)NS(=O)(=O)C(C)C)cc21 | 1.7 to 500 nM | 1.7 to 500 nM |  | 
COc1ccc2c(c1)C=C(c1ncn(C3CC3)c1C(=O)N1CCOCC1)Cn1c-2c(C2CCCCC2)c2ccc(C(=O)NS(=O)(=O)C(C)C)cc21 | 1.7 to 500 nM | 1.7 to 500 nM | 2.4 nM | 8.8 nM
COc1ccc2c(c1)C=C(c1ncn(C3CCC3)c1C(=O)N1CCOCC1)Cn1c-2c(C2CCCCC2)c2ccc(C(=O)NS(=O)(=O)C(C)C)cc21 | 1.7 to 500 nM | 1.7 to 500 nM | 1.8 nM | 9 nM
CCN1CC2CC1CN2C(=O)c1c(C2=Cc3cc(OC)ccc3-c3c(C4CCCCC4)c4ccc(C(=O)NS(=O)(=O)C(C)C)cc4n3C2)ncn1C1CCC1 (stereo not shown) | 1.7 to 500 nM | 1.7 to 500 nM |  | 
COc1ccc2c(c1)C=C(c1ncn(C3CCC3)c1C(=O)N1C[C@@H](C)O[C@@H](C)C1)Cn1c-2c(C2CCCCC2)c2ccc(C(=O)NS(=O)(=O)C(C)C)cc21 | 1.7 to 500 nM | 1.7 to 500 nM |  | 
COc1ccc2c(c1)C=C(c1c(C(=O)N3C[C@@H]4C[C@H]3CN4C)cnn1C1CCC1)Cn1c-2c(C2CCCCC2)c2ccc(C(=O)NS(=O)(=O)C(C)C)cc21 | 1.7 to 500 nM | 1.7 to 500 nM |  | 
